Literature values, collected in article PMC10089180 (Proceedings of the National Academy of Sciences of the …, 2023).
Each block holds one molecule with its values, some of them ahead of it.

Tests used:
[1] = no reference given
chemerin receptor = conditions: Y1 missing or substituted by alanine; ref [17]
FPR1 [2] = conditions: ref [38]
FPR1 [3] = conditions: tripeptide; ref [26], [27]
[4] = ref [15], [16]

Molecule: Asp-Arg-Val-Tyr-Ile-His-Pro-Phe [AngII]
- chemotactic activity [1]: does not display chemotactic activity

- reduced activity in functional assays (chemerin receptor): ~ 30%
Molecule: Y1 missing: C9 when Y1 was missing (FPGQFAFS; UniProt Q99969 150-157, looked up, fragment)

- dissociation constant (FPR1 [2]): low nanomolar range
Molecule: fMLF
- agonistic activity at FPR1 (FPR1 [3]): full agonistic activity

B1: Pre-prochemerin: 163-amino acid protein without chemotactic activity (protein, UniProt Q99969 1-163, looked up)
chain: MRRLLIPLALWLGAVGVGVAELTEAQRRGLQVALEEFHKHPPVQWAFQETSVESAVDTPFPAGIFVRLEFKLQQTSCRKRDWKKPECKVRPNGRKRKCLACIKLGSEDKVLGRLVHCPIETQVLREAEEHQETQCLRVQRAGEDPHSFYFPGQFAFSKALPRS
modifications: full-length
- chemotactic activity / bioactivity of chemerin form [4]: without chemotactic activity

B2: prochemerin (21-163): Removal of the N-terminal signal peptide results in prochemerin (21-163) (protein, UniProt Q99969 21-163, looked up)
pro-form: ELTEAQRRGLQVALEEFHKHPPVQWAFQETSVESAVDTPFPAGIFVRLEFKLQQTSCRKRDWKKPECKVRPNGRKRKCLACIKLGSEDKVLGRLVHCPIETQVLREAEEHQETQCLRVQRAGEDPHSFYFPGQFAFSKALPRS
modifications: pro-form
- chemotactic activity / bioactivity of chemerin form [4]: low bioactivity
